PubChem BioAssay AID2060624 (Molecular Pharmacology Branch, DTP, NCI, 2025)
Several values for one entry are separate records, joined by “and”; a condition that tells them apart may be missing. Equal values may be shown once.

Test system: 217524-143-R1-J4-PDC spheroids with HUVEC/MSC, viability
Test: Anticancer human tumor 217524-143-R1-J4-PDC patient-derived pancreatic carcinoma cell line growth inhibition [CLK]
Details: for viability, T/C: stronger effect = lower value
Excerpt: A high-throughput screen of multi-cell type tumor spheroids was designed to identify active combinations of […] and targeted small molecules. Complex spheroids include a stromal component modeled by human endothelial cells (HUVEC) and fibroblasts modeled by human mesenchymal stem cells (MSCs). The concentration ranges selected for each drug and investigational agent were based upon clinically achievable concentrations if the clinical Cmax of the agent was known.
Compounds. The drugs and investigational agents: cirtuvivint (SM08502; NSC835563), CC-671 (NSC850746), vemurafenib (NSC761431), tapotoclax (NSC804041), sotorasib (NSC818433), adagrasib (NSC831453), MRTX-1133 (NSC836407), BAY2416964 (NSC825713), copanlisib (NSC816437), inavolisib (NSC800729), abemaciclib (NSC768073), osimertinib (NSC779217), entinostat (NSC756642), eltanexor (KPT-8602, NSC794443), venetoclax (NSC766270), ceralasertib (NSC777638), bortezomib (NSC756655), olaparib (NSC753686), talazoparib (NSC767125), alisertib (NSC759677), peposertib (NSC802822), gemcitabine (NSC613327), 5-fluorouracil (NSC19893), SN-38 (NSC673596), oxaliplatin (NSC266046), paclitaxel (NSC125973), and doxorubicin (NSC123127), were obtained from the National Cancer Institute (NCI) Developmental Therapeutics Program Chemical Repository. The FDA-approved anticancer drug set is available from the Developmental Therapeutics Program at https://dtp.cancer.gov/organization/dscb/obtaining/available plates.htm. […] The stock solutions were prepared in dimethyl sulfoxide (DMSO, Sigma-Aldrich, St. Louis, MO, cat. D2650), except for the platinum complexes which were prepared in saline (Quality Biological, Gaithersburg, MD, cat. 114-055-101), at 800-fold the tested concentration and stored at -70 degrees C prior to their use. All drugs and investigational agents were tested over a range starting from a high concentration at or near the clinical Cmax and decreasing in half-log increments. If the clinical Cmax for an agent had not been determined, the highest concentration tested was 10 microM.
Cell Culture. All cells were maintained in an incubator at 37 degrees C and 5% CO2 with 95% humidity. The PDC lines were cultured according to standard operating procedures established by the NCI PDMR. Briefly, all PDCs were thawed and cultured in Matrigel-coated flasks prepared with a working solution of 1X Ham's F-12 nutrient mix, without supplementation (Invitrogen, Waltham, MA, cat. 11765054), 100 U/mL penicillin-streptomycin (Invitrogen, cat. 15140122), and 2.5% Matrigel (Corning Inc., Corning, NY, cat. 354248) for the first three passages. The 947758-054-R-J2-PDC line was cultured in 6B/Colon 1A media, which includes advanced DMEM/F-12 (Thermo Fisher Scientific, cat. 12634028), 10 mM HEPES (Thermo Fisher Scientific, cat. 15630080), 1X GlutaMAX supplement (Thermo Fisher Scientific, cat. 35050061), 0.1 mg/mL primocin (InvivoGen, cat. ant-pm-2), 10% defined fetal bovine serum, heat inactivated (HyClone Laboratories Inc., cat. SH30070.03HI), 1.25 mM N-Acetyl-L-cysteine (Sigma-Aldrich, cat. A9165), 10 mM nicotinamide (Sigma-Aldrich, cat. N0636), 1X B-27 supplement (Thermo Fisher Scientific, cat. 17504044), 1X N-2 supplement (Thermo Fisher Scientific, cat. 17502048), and 10 microM Y-27632 dihydrochloride (Tocris Bioscience, cat. 1254). The 876862-298-R-J1-PDC was cultured in 6E media, which includes all 6B/Colon 1A media components plus 50% L-WRN conditioned media (ATCC, cat. CRL-3276), 50 ng/mL recombinant human EGF recombinant protein (hEGF; Thermo Fisher Scientific, cat. PHG0311), 10 ng/mL recombinant human fibroblast growth factor 10 (hGFG-10; PeproTech, cat. 100-26), 1 ng/mL recombinant human fibroblast growth factor 2 (hFGF-2; PeproTech, cat. 100-18B), and 1 µM prostaglandin E2 (PGE2; Tocris, cat. 2296). The 227483-062-R1-J1-PDC line was cultured in Panc media, containing all 6E components except hFGF-2, with the addition of 500 nM SB-431542 (Selleckchem, cat. S1067) and 10 nM gastrin (Tocris, cat. 3006). […]
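Further: spheroids exposed to agents for seven days before reading.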
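Wherever viability, T/C is given: 100% = DMSO vehicle control viability.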

Q: How did the viability, T/C (compound 0.0316 µM) turn out when `CCCS(=O)(=O)Nc1ccc(F)c(C(=O)c2c[nH]c3ncc(-c4ccc(Cl)cc4)cc23)c1F` was run?
A: The viability, T/C was 111% and 94.5%.

Q: And the viability, T/C (compound 0.1 µM)?
A: Its viability, T/C is 110% and 95%.

Q: And the viability, T/C (compound 0.316 µM)?
A: The viability, T/C was 109% and 117%.

Q: What about the viability, T/C (compound 1 µM) of the same compound?
A: The viability, T/C was 138% and 127%.

Q: And the viability, T/C (compound 3.16 µM)?
A: The viability, T/C was 144% and 134%.

Q: What about the viability, T/C (compound 10 µM) of the same compound?
A: The viability, T/C was 59.8% and 57%.

Q: And the IC50 (curve of compound)?
A: The IC50 was > 10 µM.

Q: With `C=CC(=O)N1CCN(c2nc(=O)n(-c3c(C)ccnc3C(C)C)c3nc(-c4c(O)cccc4F)c(F)cc23)C(C)C1` (stereo not drawn) + CN1CCN(c2cc(C(=O)Nc3cc4cc(-c5cnn(C)c5)ccc4cn3)ccn2)CC1 as the compound, how does the IC50 (curve of first compound, second compound 0.0316 µM) read?
A: Its IC50 is > 10 µM.

Q: What about the IC50 (curve of first compound, second compound 0.1 µM) of the same compound?
A: Its IC50 is > 10 µM.

Q: What about the IC50 (curve of first compound, second compound 0.316 µM) of the same compound?
A: Its IC50 is < 0.0316 µM.

Q: What about the IC50 (curve of first compound, second compound 1 µM) of the same compound?
A: Its IC50 is < 0.0316 µM.

Q: And the IC50 (curve of first compound, second compound 3.16 µM)?
A: Its IC50 is < 0.0316 µM.

Q: And the IC50 (curve of first compound, second compound 10 µM)?
A: Its IC50 is < 0.0316 µM.

Q: What about the viability, T/C (second compound 0.0316 µM, first compound 0.0316 µM) of the same compound?
A: The viability, T/C was 93.4%.

Q: And the viability, T/C (second compound 0.0316 µM, first compound 0.1 µM)?
A: Its viability, T/C is 71.5%.

Q: And the viability, T/C (second compound 0.0316 µM, first compound 0.316 µM)?
A: Its viability, T/C is 67.1%.

Q: And the viability, T/C (second compound 0.0316 µM, first compound 1 µM)?
A: The viability, T/C was 90.5%.

Q: What about the viability, T/C (second compound 0.0316 µM, first compound 3.16 µM) of the same compound?
A: Its viability, T/C is 111%.

Q: What about the viability, T/C (second compound 0.0316 µM, first compound 10 µM) of the same compound?
A: Its viability, T/C is 95.4%.

Q: What about the viability, T/C (second compound 0.1 µM, first compound 0.0316 µM) of the same compound?
A: Its viability, T/C is 62.3%.

Q: What about the viability, T/C (second compound 0.1 µM, first compound 0.1 µM) of the same compound?
A: Its viability, T/C is 59%.

Q: What about the viability, T/C (second compound 0.1 µM, first compound 0.316 µM) of the same compound?
A: The viability, T/C was 58.7%.

Q: And the viability, T/C (second compound 0.1 µM, first compound 1 µM)?
A: The viability, T/C was 64.9%.

Q: And the viability, T/C (second compound 0.1 µM, first compound 3.16 µM)?
A: The viability, T/C was 66.7%.

Q: And the viability, T/C (second compound 0.1 µM, first compound 10 µM)?
A: The viability, T/C was 57%.

Q: What about the viability, T/C (second compound 0.316 µM, first compound 0.0316 µM) of the same compound?
A: Its viability, T/C is 25.8%.

Q: What about the viability, T/C (second compound 0.316 µM, first compound 0.1 µM) of the same compound?
A: Its viability, T/C is 22.5%.

Q: What about the viability, T/C (second compound 0.316 µM, first compound 0.316 µM) of the same compound?
A: The viability, T/C was 27%.

Q: What about the viability, T/C (second compound 0.316 µM, first compound 1 µM) of the same compound?
A: The viability, T/C was 30.8%.

Q: And the viability, T/C (second compound 0.316 µM, first compound 3.16 µM)?
A: Its viability, T/C is 31.1%.

Q: What about the viability, T/C (second compound 0.316 µM, first compound 10 µM) of the same compound?
A: The viability, T/C was 22.9%.

Q: And the viability, T/C (second compound 1 µM, first compound 0.0316 µM)?
A: The viability, T/C was 1.96%.

Q: What about the viability, T/C (second compound 1 µM, first compound 0.1 µM) of the same compound?
A: Its viability, T/C is 2.92%.

Q: And the viability, T/C (second compound 1 µM, first compound 0.316 µM)?
A: Its viability, T/C is 1.65%.

Q: What about the viability, T/C (second compound 1 µM, first compound 1 µM) of the same compound?
A: The viability, T/C was 3.19%.

Q: What about the viability, T/C (second compound 1 µM, first compound 3.16 µM) of the same compound?
A: Its viability, T/C is 2.93%.

Q: What about the viability, T/C (second compound 1 µM, first compound 10 µM) of the same compound?
A: Its viability, T/C is 2.27%.

Q: What about the viability, T/C (second compound 3.16 µM, first compound 0.0316 µM) of the same compound?
A: Its viability, T/C is 1.06%.

Q: And the viability, T/C (second compound 3.16 µM, first compound 0.1 µM)?
A: The viability, T/C was 1.37%.

Q: And the viability, T/C (second compound 3.16 µM, first compound 0.316 µM)?
A: The viability, T/C was 1.15%.

Q: And the viability, T/C (second compound 3.16 µM, first compound 1 µM)?
A: Its viability, T/C is 0.96%.

Q: And the viability, T/C (second compound 3.16 µM, first compound 3.16 µM)?
A: The viability, T/C was 1.76%.

Q: And the viability, T/C (second compound 3.16 µM, first compound 10 µM)?
A: The viability, T/C was 1.78%.

Q: And the viability, T/C (second compound 10 µM, first compound 0.0316 µM)?
A: Its viability, T/C is 0.21%.

Q: And the viability, T/C (second compound 10 µM, first compound 0.1 µM)?
A: Its viability, T/C is 0.25%.

Q: And the viability, T/C (second compound 10 µM, first compound 0.316 µM)?
A: The viability, T/C was 0.24%.

Q: What about the viability, T/C (second compound 10 µM, first compound 1 µM) of the same compound?
A: The viability, T/C was 0.29%.

Q: And the viability, T/C (second compound 10 µM, first compound 3.16 µM)?
A: Its viability, T/C is 0.41%.

Q: And the viability, T/C (second compound 10 µM, first compound 10 µM)?
A: The viability, T/C was 0.29%.

Q: With `COc1c(OCCCN2CCOCC2)ccc2c3n(c(=NC(=O)c4cnc(N)nc4)nc12)CCN3` as the compound, how does the viability, T/C (compound 0.00316 µM) read?
A: The viability, T/C was 74.2% and 71.6%.

Q: And the viability, T/C (compound 0.01 µM)?
A: Its viability, T/C is 39.2% and 27.7%.

Q: What about the viability, T/C (compound 0.0316 µM) of the same compound?
A: Its viability, T/C is 16.1% and 11.7%.

Q: What about the viability, T/C (compound 0.1 µM) of the same compound?
A: Its viability, T/C is 5% and 4.43%.

Q: And the viability, T/C (compound 0.316 µM)?
A: Its viability, T/C is 2.63% and 3%.

Q: And the viability, T/C (compound 1 µM)?
A: The viability, T/C was 2.47% and 2.32%.

Q: What about the IC50 (curve of compound) of the same compound?
A: Its IC50 is 0.00704 µM and 0.00559 µM.

Q: Which viability, T/C (compound 0.0316 µM) does the source give for `CC(CO)NC(=O)c1cc(-c2ccc(Cl)cc2)nn(-c2cnn(C)c2)c1=O` (stereo not drawn) here?
A: Its viability, T/C is 110% and 92.8%.

Q: What about the viability, T/C (compound 0.1 µM) of the same compound?
A: The viability, T/C was 94.5% and 72.6%.

Q: And the viability, T/C (compound 0.316 µM)?
A: The viability, T/C was 91.5% and 92.9%.

Q: And the viability, T/C (compound 1 µM)?
A: Its viability, T/C is 89.1% and 89.9%.

Q: And the viability, T/C (compound 3.16 µM)?
A: Its viability, T/C is 106% and 95.8%.

Q: And the viability, T/C (compound 10 µM)?
A: Its viability, T/C is 78.1% and 85.5%.

Q: What about the IC50 (curve of compound) of the same compound?
A: Its IC50 is > 10 µM.
